From patent publication US20160193206A1, “BET-PROTEIN-INHIBITING DIHYDROPYRIDOPYRAZINONES” (BAYER PHARMA AKTIENGESELLSCHAFT, priority 2012, published 2016) come the findings set out here.

One assay relates to MOLM-13 cell line. Put plainly: MOLM-13 cell proliferation assay (alamarBlue). Particulars: Homo sapiens, inhibition of proliferation of MOLM-13 cells (acute myeloid leukaemia), 96 hours incubation. It is filed as cell-based. On the procedure:
In accordance with the invention, the substances were tested for their ability to inhibit the proliferation of the MOLM-13 cell linie (Deutsche Sammlung für Mikroorganismen und Zellkulturen [German Collection of Microorganisms and Cell Cultures], ACC 554; acute myeloid leukaemia). Cell viability was determined by means of the alamarBlue® reagent (Invitrogen) in a Victor X3 Multilabel Reader (Perkin Elmer). The excitation wavelength was 530 nm and the emission wavelength […].
The MOLM-13 cells were sown at a density of 4000 cells/well in 100 μl of growth medium on 96-well microtitre plates. After overnight incubation at 37° C., the fluorescence values were determined (CI values). The plates were then treated with various substance dilutions and incubated at 37° C. for 96 hours. Subsequently, the fluorescence values were determined (CO values). For the data analysis, the CI values were subtracted from the CO values and the results were compared between cells which had been treated with various dilutions of the substance or only with buffer solution. The IC50 values (substance concentration needed for 50% inhibition of cell proliferation) were calculated therefrom.
On the technique in general: The colour change of resazurin is a common sign of viable cells or microbes.

For assay [1], the target named is T1, BRD4 bromo domain 2 [BRD4(2)] (Homo sapiens, UniProt O60885).
T1 construct: N-terminally His6-tagged BRD4(2) (amino acids 357-445); made in house; host or cells: E. coli
Put plainly: BRD4(2)/acetylated peptide H4 binding assay (TR-FRET). Particulars: inhibition of interaction between His6-tagged BRD4(2) (amino acids 357-445) and acetylated histone H4 peptide. In a few lines:
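TR-FRET displacement of biotinylated tetra-acetylated H4 peptide from His6-BRD4(2) (aa 357-445, E. coli-expressed), 100 nM final, in HEPES pH 7.5 buffer; 11 compound concentrations 0.1 nM-20 μM, 10 min preincubation, then 1 h 22 °C plus ≥3 h 4 °C. 665/620 ratio read; IC50 by 4-parameter fit.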

Assay [2] has as its target T2, BRD4 bromo domain 1 [BRD4(1)] (Homo sapiens, UniProt O60885).
T2 construct: N-terminally His6-tagged BRD4(1) (amino acids 67-152); made in house; host or cells: E. coli
Put plainly: BRD4(1)/acetylated peptide H4 binding assay (TR-FRET). Particulars: inhibition of interaction between His6-tagged BRD4(1) (amino acids 67-152) and acetylated histone H4 peptide. In a few lines: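 TR-FRET measured displacement of a biotinylated tetra-acetylated H4 peptide from His6-BRD4(1) (aa 67-152, E. coli-expressed, typically 10 nM) in HEPES pH 7.5 buffer. Compounds were tested at 11 concentrations (0.1 nM–20 μM), with 10 min preincubation, then 1 h at 22 °C and ≥3 h at 4 °C. The 665/620 nm ratio gave IC50 by 4-parameter fit.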

Structures are written as SMILES.

Broadly, the IC50 is the concentration that gives 50% inhibition. A high value points to weaker potency in that assay. Turning to `COc1cc(C(=O)NC2CCC(=O)CC2)ccc1Nc1ccc2c(n1)N(C1CCOCC1)[C@H](C)C(=O)N2C` [Example 38, 4-{[(3R)-1,3-Dimethyl-2-oxo-4-(tetrahydro-2H-pyran-4-yl)-1,2,3,4-tetrahydropyrido[2,3-b]pyrazin-6-yl]amino}-3-methoxy-N-(4-oxocyclohexyl)benzamide], the half-inhibitory concentration (IC50) in the assay with MOLM-13 cell line was 51 nM; in assay [1] it was 79 nM; in assay [2], 194 nM.
For `COc1cc(C(=O)NC2CCC(N3CCC(F)(F)CC3)CC2)ccc1Nc1ccc2c(n1)N(C1CCOCC1)[C@H](C)C(=O)N2C` (stereo partly drawn) [Example 62, N-[4-(4,4-Difluoropiperidin-1-yl)cyclohexyl]-4-{[(3R)-1,3-dimethyl-2-oxo-4-(tetrahydro-2H-pyran-4-yl)-1,2,3,4-tetrahydropyrido[2,3-b]pyrazin-6-yl]amino}-3-methoxybenzamide], in that order: 444 nM, 146 nM and 187 nM.
`C[C@@H]1C(=O)N(C)c2ccc(Nc3ccc(C(=O)NCCN4CCN(C)CC4)cc3)nc2N1C1CCOCC1` [Example 51, 4-{[(3R)-1,3-Dimethyl-2-oxo-4-(tetrahydro-2H-pyran-4-yl)-1,2,3,4-tetrahydropyrido[2,3-b]pyrazin-6-yl]amino}-N-[2-(4-methylpiperazin-1-yl)ethyl]benzamide]: the half-inhibitory concentration (IC50) with MOLM-13 cell line is 507 nM; in assay [1], 219 nM; in assay [2] it was 138 nM.
For the compound `C[C@@H]1C(=O)N(C)c2ccc(Nc3ccc(C(=O)N4CC5(COC5)C4)cc3)nc2N1Cc1ccccc1` [Example 41, (3R)-4-Benzyl-1,3-dimethyl-6-{[4-(2-oxa-6-azaspiro[3.3]hept-6-ylcarbonyl)phenyl]amino}-3,4-dihydropyrido[2,3-b]pyrazin-2(1H)-one], the IC50 in the assay on MOLM-13 cell line is 191 nM; in assay [1] it was 109 nM; in assay [2], 122 nM.
The matching figures for `C[C@@H]1C(=O)N(C)c2ccc(Nc3ccc(C(=O)NC4CN(C)C4)cc3)nc2N1C1CCOCC1` [Example 50, 4-{[(3R)-1,3-Dimethyl-2-oxo-4-(tetrahydro-2H-pyran-4-yl)-1,2,3,4-tetrahydropyrido[2,3-b]pyrazin-6-yl]amino}-N-(1-methylazetidin-3-yl)benzamide]: 576 nM, 111 nM and 145 nM.
`COc1cc(C(=O)N2CCN(C)CC2)ccc1Nc1ccc2c(n1)N(C1CCOCC1)[C@H](C)C(=O)N2C` [Example 45, (3R)-6-({2-Methoxy-4-[(4-methylpiperazin-1-yl)carbonyl]phenyl}amino)-1,3-dimethyl-4-(tetrahydro-2H-pyran-4-yl)-3,4-dihydropyrido[2,3-b]pyrazin-2(1H)-one]: the concentration for half-maximal inhibition (IC50) in the assay on MOLM-13 cell line was 539 nM; in assay [1], 86 nM; in assay [2], 77 nM.
For the compound `C[C@@H]1C(=O)N(C)c2ccc(Nc3ccc(C(=O)N4CC5(COC5)C4)cc3)nc2N1C1CCCCC1` [Example 69, (3R)-4-Cyclohexyl-1,3-dimethyl-6-{[4-(2-oxa-6-azaspiro[3.3]hept-6-ylcarbonyl)phenyl]amino}-3,4-dihydropyrido[2,3-b]pyrazin-2(1H)-one], the half-inhibitory concentration (IC50) in the assay with MOLM-13 cell line worked out at 358 nM; in assay [1] it was 89 nM; in assay [2], 164 nM.
Take `COc1cc(C(=O)NC2CCN(C)CC2)ccc1Nc1ccc2c(n1)N(C1CCOCC1)[C@H](C)C(=O)N2C` [Example 13, 4-{[(3R)-1,3-Dimethyl-2-oxo-4-(tetrahydro-2H-pyran-4-yl)-1,2,3,4-tetrahydropyrido[2,3-b]pyrazin-6-yl]amino}-3-methoxy-N-(1-methylpiperidin-4-yl)benzamide]: the results for the IC50 (with MOLM-13 cell line; in assay [1]; in assay [2]) were 212 nM, 113 nM and 114 nM, respectively.
Regarding `COc1cc(C(=O)N[C@H]2CC[C@H](N3CCN(CC4CC4)CC3)CC2)ccc1Nc1ccc2c(n1)N(C1CCOCC1)[C@H](C)C(=O)N2C` [Example 14, N-{trans-4-[4-(Cyclopropylmethyl)piperazin-1-yl]cyclohexyl}-4-{[(3R)-1,3-dimethyl-2-oxo-4-(tetrahydro-2H-pyran-4-yl)-1,2,3,4-tetrahydropyrido[2,3-b]pyrazin-6-yl]amino}-3-methoxybenzamide], the 50% inhibitory concentration (IC50) in the assay on MOLM-13 cell line was 233 nM; in assay [1], 108 nM; in assay [2] it was 149 nM.
The matching figures for `C[C@@H]1C(=O)N(C)c2ccc(Nc3ccc(C(=O)N[C@H]4CC[C@H](N5CCN(CC6CC6)CC5)CC4)cc3)nc2N1C1CCCCC1` [Example 68, 4-{[(3R)-4-Cyclohexyl-1,3-dimethyl-2-oxo-1,2,3,4-tetrahydropyrido[2,3-b]pyrazin-6-yl]amino}-N-{trans-4-[4-(cyclopropylmethyl)piperazin-1-yl]cyclohexyl}benzamide]: 548 nM, 310 nM and 263 nM.
The matching figures for `COc1cc(C(=O)N2CCN(C(C)C)CC2)ccc1Nc1ccc2c(n1)N(Cc1ccccc1)[C@H](C)C(=O)N2C` [Example 80, (3R)-4-Benzyl-6-[(2-methoxy-4-{[4-(propan-2-yl)piperazin-1-yl]carbonyl}phenyl)amino]-1,3-dimethyl-3,4-dihydro pyrido[2,3-b]pyrazin-2(1H)-one]: 170 nM, 138 nM and 137 nM.
For `C[C@@H]1C(=O)N(C)c2ccc(Nc3ccc(C(=O)NC4CCN(C)CC4)cc3)nc2N1C1CCOCC1` [Example 58, 4-{[(3R)-1,3-Dimethyl-2-oxo-4-(tetrahydro-2H-pyran-4-yl)-1,2,3,4-tetrahydropyrido[2,3-b]pyrazin-6-yl]amino}-N-(1-methylpiperidin-4-yl)benzamide], in that order: 339 nM, 134 nM and 111 nM.
For `C[C@@H]1C(=O)N(C)c2ccc(Nc3ccc(S(=O)(=O)NCc4ccccn4)cc3)nc2N1C1CCOCC1` [Example 25, 4-{[(3R)-1,3-dimethyl-2-oxo-4-(tetrahydro-2H-pyran-4-yl)-1,2,3,4-tetrahydropyrido[2,3-b]pyrazin-6-yl]amino}-N-(pyridin-2-ylmethyl)benzene-sulphonamide], the IC50 in the assay on MOLM-13 cell line worked out at 388 nM; in assay [1] it was 94 nM; in assay [2], 50 nM.
For `COc1cc(C(=O)NC2CCC(O)CC2)ccc1Nc1ccc2c(n1)N(Cc1ccccc1)[C@H](C)C(=O)N2C` (stereo partly drawn) [Example 79, 4-{[(3R)-4-Benzyl-1,3-dimethyl-2-oxo-1,2,3,4-tetrahydropyrido[2,3-b]pyrazin-6-yl]amino}-N-(4-hydroxycyclohexyl)-3-methoxybenzamide], the half-maximal inhibitory concentration (IC50) in the assay with MOLM-13 cell line is 282 nM; in assay [1] it was 51 nM; in assay [2] it was 120 nM.
The matching figures for `C[C@@H]1C(=O)N(C)c2ccc(Nc3ccc(S(=O)(=O)N(C)C)cc3)nc2N1C1CCCC1` [Example 103, 4-{[(3R)-4-Cyclopentyl-1,3-dimethyl-2-oxo-1,2,3,4-tetrahydropyrido[2,3-b]pyrazin-6-yl]amino}-N,N-dimethylbenzenesulphonamide]: 177 nM, 51 nM and 78 nM.
For `COc1cc(C(=O)N[C@H]2CC[C@H](N3CCN(CC4CC4)CC3)CC2)ccc1Nc1ccc2c(n1)N(Cc1ccccc1)[C@H](C)C(=O)N2C` [Example 34, 4-{[(3R)-4-Benzyl-1,3-dimethyl-2-oxo-1,2,3,4-tetrahydropyrido[2,3-b]pyrazin-6-yl]amino}-N-{trans-4-[4-(cyclopropylmethyl)piperazin-1-yl]cyclohexyl}-3-methoxybenzamide], the IC50 with MOLM-13 cell line was determined as 338 nM; in assay [1], 104 nM; in assay [2], 256 nM.
For `COc1cc(C(=O)NC2CCN(C(C)=O)CC2)ccc1Nc1ccc2c(n1)N(Cc1ccccc1)[C@H](C)C(=O)N2C` [Example 77, N-(1-Acetylpiperidin-4-yl)-4-{[(3R)-4-benzyl-1,3-dimethyl-2-oxo-1,2,3,4-tetrahydropyrido[2,3-b]pyrazin-6-yl]amino}-3-methoxybenzamide], in that order: 242 nM, 103 nM and 55 nM.
With `COc1cc(C(=O)NC2CN(C)C2)ccc1Nc1ccc2c(n1)N(C1CCCCC1)[C@H](C)C(=O)N2C` [Example 72, 4-{[(3R)-4-Cyclohexyl-1,3-dimethyl-2-oxo-1,2,3,4-tetrahydropyrido[2,3-b]pyrazin-6-yl]amino}-3-methoxy-N-(1-methylazetidin-3-yl)benzamide], the figures for the half-maximal inhibitory concentration (IC50) (in the assay with MOLM-13 cell line; in assay [1]; in assay [2]) were 254 nM, 118 nM and 131 nM, respectively.
